Measurements from patent publication US10640506B2, “Cyclobutyl substituted pyrrolopyridine and pyrrolopyrimidines derivatives as JAK inhibitors” (Incyte Corporation, priority 2010, dated 2020).
Read-outs that look alike come from different tables or passages of the source.

Assays:
[1] = target: human JAK1 (a.a. 837-1142) (Homo sapiens, UniProt P23458); experiment: In vitro JAK kinase assay (HTRF, phosphorylation of biotinylated peptide), JAK1; format: biochemical
Method in brief: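 His-tagged human JAK1 catalytic domain (a.a. 837-1142), baculovirus/insect-cell expressed, phosphorylates a biotinylated peptide for 1 h at room temperature. Reaction stopped with EDTA; product detected by HTRF (SA-APC, Eu-Py20, 40 min binding). IC50 reported as ranges.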

JAK2 (a.a. 828-1132) = target: T1, JAK2 (a.a. 828-1132) (Homo sapiens, UniProt O60674); experiment: In vitro JAK kinase assay (HTRF, phosphorylation of biotinylated peptide), JAK2; format: biochemical
T1 construct: JAK2 (a.a. 828-1132); His tag (N)
Method in brief: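 His-tagged catalytic domains of human JAK1 (a.a. 837-1142) and JAK2 (a.a. 828-1132), baculovirus-expressed, phosphorylate a biotinylated peptide for 1 hour at room temperature. Stopped with EDTA; detected by HTRF using SA-APC and Eu-Py20 antibody after 40 min binding; values binned as ranges.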

T1 sequence (O60674 828-1132): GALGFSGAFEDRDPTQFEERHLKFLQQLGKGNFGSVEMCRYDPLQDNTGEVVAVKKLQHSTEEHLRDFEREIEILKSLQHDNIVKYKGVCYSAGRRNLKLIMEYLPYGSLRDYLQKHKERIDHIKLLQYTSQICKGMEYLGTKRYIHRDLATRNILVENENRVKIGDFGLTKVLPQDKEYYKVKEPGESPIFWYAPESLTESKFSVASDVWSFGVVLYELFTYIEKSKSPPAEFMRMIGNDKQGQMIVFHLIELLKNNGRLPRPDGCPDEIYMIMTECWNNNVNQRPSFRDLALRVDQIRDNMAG
Sequence of human JAK1 (a.a. 837-1142) (P23458 849-1154): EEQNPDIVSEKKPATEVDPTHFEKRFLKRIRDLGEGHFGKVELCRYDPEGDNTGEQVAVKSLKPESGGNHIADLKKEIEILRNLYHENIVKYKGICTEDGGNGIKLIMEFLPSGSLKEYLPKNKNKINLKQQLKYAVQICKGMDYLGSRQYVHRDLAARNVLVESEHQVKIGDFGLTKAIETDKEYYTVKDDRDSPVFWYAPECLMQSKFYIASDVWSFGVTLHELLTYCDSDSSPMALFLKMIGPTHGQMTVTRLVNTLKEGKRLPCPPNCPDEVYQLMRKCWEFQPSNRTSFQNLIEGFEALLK

| Compound | IC50 ([1]; Table F, 1 mM ATP) [nM] | IC50 (JAK2 (a.a. 828-1132); Table F, 1 mM ATP) [nM] | IC50 ([1]; read-out: JAK1 IC50 (nM) at 1 mM ATP, Table F) [nM] | IC50 (JAK2 (a.a. 828-1132); read-out: JAK2 IC50 (nM) at 1 mM ATP, Table F) [nM] |
| --- | --- | --- | --- | --- |
| N#CC[C@]1(n2cc(-c3ncnc4[nH]ccc34)cn2)C[C@H](N2CCC(Oc3cc(CN)nc(C(F)(F)F)n3)CC2)C1 [Example 147, {trans-3-(4-{[6-(aminomethyl)-2-(trifluoromethyl)pyrimidin-4-yl]oxy}piperidin-1-yl)-1-[4-(7H-pyrrolo[2,3-d]pyrimidin-4-yl)-1H-pyrazol-1-yl]cyclobutyl}acetonitrile] | 10 to 25 | 25 to 100 | – | – |
| N#CC[C@]1(n2cc(-c3ncnc4[nH]ccc34)cn2)C[C@H](N2CCC(Oc3cc(CN4CCCC4)nc(C(F)(F)F)n3)CC2)C1 [Example 148, {trans-3-(4-{[6-(pyrrolidin-1-ylmethyl)-2-(trifluoromethyl)pyrimidin-4-yl]oxy}piperidin-1-yl)-1-[4-(7H-pyrrolo[2,3-d]pyrimidin-4-yl)-1H-pyrazol-1-yl]cyclobutyl}acetonitrile] | 10 to 25 | > 100 | – | – |
| N#CC[C@]1(n2cc(-c3ncnc4[nH]ccc34)cn2)C[C@H](N2CCC(Oc3cc(CN4CCOCC4)nc(C(F)(F)F)n3)CC2)C1 [Example 149, {trans-3-(4-{[6-(morpholin-4-ylmethyl)-2-(trifluoromethyl)pyrimidin-4-yl]oxy}piperidin-1-yl)-1-[4-(7H-pyrrolo[2,3-d]pyrimidin-4-yl)-1H-pyrazol-1-yl]cyclobutyl}acetonitrile] | 25 to 100 | > 100 | – | – |
| N#CC[C@]1(n2cc(-c3ncnc4[nH]ccc34)cn2)C[C@H](N2CCC(Oc3cc(CN4CCC4)nc(C(F)(F)F)n3)CC2)C1 [Example 150, {cis-3-(4-{[6-(azetidin-1-ylmethyl)-2-(trifluoromethyl)pyrimidin-4-yl]oxy}piperidin-1-yl)-1-[4-(7H-pyrrolo[2,3-d]pyrimidin-4-yl)-1H-pyrazol-1-yl]cyclobutyl}acetonitrile] | 10 to 25 | > 100 | – | – |
| Cc1cc(OC2CCN([C@H]3C[C@@](CC#N)(n4cc(-c5ncnc6[nH]ccc56)cn4)C3)CC2)nc(C(F)(F)F)c1 [Example 151, {trans-3-(4-{[4-methyl-6-(trifluoromethyl)pyridin-2-yl]oxy}piperidin-1-yl)-1-[4-(7H-pyrrolo[2,3-d]pyrimidin-4-yl)-1H-pyrazol-1-yl]cyclobutyl}acetonitrile] | < 10 | 25 to 100 | – | – |
| N#CC[C@]1(n2cc(-c3ncnc4[nH]ccc34)cn2)C[C@H](N2CCN(C(=O)NC(C(F)(F)F)C(F)(F)F)CC2)C1 [Example 152, 4-{trans-3-(Cyanomethyl)-3-[4-(7H-pyrrolo[2,3-d]pyrimidin-4-yl)-1H-pyrazol-1-yl]cyclobutyl}-N-[2,2,2-trifluoro-1-(trifluoromethyl)ethyl]piperazine-1-carboxamide] | < 10 | > 100 | – | – |
| CC(C)(CO)NCc1cc(OC2CCN([C@H]3C[C@](CC#N)(n4cc(-c5ncnc6[nH]ccc56)cn4)C3)CC2)nc(C(F)(F)F)c1 [Example 153, {trans-3-(4-{[4-{[(2-hydroxy-1,1-dimethylethyl)amino]methyl}-6-(trifluoromethyl)pyridin-2-yl]oxy}piperidin-1-yl)-1-[4-(7H-pyrrolo[2,3-d]pyrimidin-4-yl)-1H-pyrazol-1-yl]cyclobutyl}acetonitrile] | < 10 | 25 to 100 | – | – |
| N#CC[C@]1(n2cc(-c3ncnc4[nH]ccc34)cn2)C[C@H](N2CCC(Oc3cc(CNCCO)cc(C(F)(F)F)n3)CC2)C1 [Example 154, {trans-3-(4-{[4-{[(2-hydroxyethyl)amino]methyl}-6-(trifluoromethyl)pyridin-2-yl]oxy}piperidin-1-yl)-1-[4-(7H-pyrrolo[2,3-d]pyrimidin-4-yl)-1H-pyrazol-1-yl]cyclobutyl}acetonitrile] | < 10 | 25 to 100 | – | – |
| N#CC[C@]1(n2cc(-c3ncnc4[nH]ccc34)cn2)C[C@H](N2CCC(Oc3cc(CNCCCO)cc(C(F)(F)F)n3)CC2)C1 [Example 155, {trans-3-(4-{[4-{[(3-hydroxypropyl)amino]methyl}-6-(trifluoromethyl)pyridin-2-yl]oxy}piperidin-1-yl)-1-[4-(7H-pyrrolo[2,3-d]pyrimidin-4-yl)-1H-pyrazol-1-yl]cyclobutyl}acetonitrile] | < 10 | 25 to 100 | – | – |
| {cis-3-(4-{[6-(1-hydroxy-1-methylethyl)-2-(trifluoromethyl)pyrimidin-4-yl]carbonyl}piperazin-1-yl)-1-[4-(1H-pyrrolo[2,3-b]pyridin-4-yl)-1H-pyrazol-1-yl]cyclobutyl}acetonitrile [Example 77] | – | – | < 10 | 25 to 100 |

Continued, in another order:

| IC50 ([1]; Table F, 1 mM ATP) [nM] | IC50 (JAK2 (a.a. 828-1132); Table F, 1 mM ATP) [nM] | Compound | IC50 ([1]; read-out: JAK1 IC50 (nM) at 1 mM ATP, Table F) [nM] | IC50 (JAK2 (a.a. 828-1132); read-out: JAK2 IC50 (nM) at 1 mM ATP, Table F) [nM] |
| --- | --- | --- | --- | --- |
| < 10 | 25 to 100 | N#CC[C@]1(n2cc(-c3ncnc4[nH]ccc34)cn2)C[C@H](N2CCC(Oc3cc(CN4CCC4)cc(C(F)(F)F)n3)CC2)C1 [Example 156, {trans-3-(4-{[4-(azetidin-1-ylmethyl)-6-(trifluoromethyl)pyridin-2-yl]oxy}piperidin-1-yl)-1-[4-(7H-pyrrolo[2,3-d]pyrimidin-4-yl)-1H-pyrazol-1-yl]cyclobutyl}acetonitrile] | – | – |
| < 10 | 25 to 100 | N#CC[C@]1(n2cc(-c3ncnc4[nH]ccc34)cn2)C[C@H](N2CCC(Oc3cc(CN4CC(O)C4)cc(C(F)(F)F)n3)CC2)C1 [Example 157, {trans-3-(4-{[4-[(3-hydroxyazetidin-1-yl)methyl]-6-(trifluoromethyl)pyridin-2-yl]oxy}piperidin-1-yl)-1-[4-(7H-pyrrolo[2,3-d]pyrimidin-4-yl)-1H-pyrazol-1-yl]cyclobutyl}acetonitrile] | – | – |
| < 10 | 25 to 100 | N#CC[C@]1(n2cc(-c3ncnc4[nH]ccc34)cn2)C[C@H](N2CCC(Oc3cc(CN4CCCC4)cc(C(F)(F)F)n3)CC2)C1 [Example 158, {trans-3-(4-{[4-(pyrrolidin-1-ylmethyl)-6-(trifluoromethyl)pyridin-2-yl]oxy}piperidin-1-yl)-1-[4-(7H-pyrrolo[2,3-d]pyrimidin-4-yl)-1H-pyrazol-1-yl]cyclobutyl}acetonitrile] | – | – |
| < 10 | 25 to 100 | N#CC[C@]1(n2cc(-c3ncnc4[nH]ccc34)cn2)C[C@H](N2CCC(Oc3cc(CN4CCOCC4)cc(C(F)(F)F)n3)CC2)C1 [Example 159, {trans-3-(4-{[4-(morpholin-4-ylmethyl)-6-(trifluoromethyl)pyridin-2-yl]oxy}piperidin-1-yl)-1-[4-(7H-pyrrolo[2,3-d]pyrimidin-4-yl)-1H-pyrazol-1-yl]cyclobutyl}acetonitrile] | – | – |
| 10 to 25 | > 100 | N#CC[C@]1(n2cc(-c3ncnc4[nH]ccc34)cn2)C[C@H](N2CCC(Oc3cc(CN4CCC(F)(F)C4)cc(C(F)(F)F)n3)CC2)C1 [Example 160, {trans-3-(4-{[4-[(3,3-difluoropyrrolidin-1-yl)methyl]-6-(trifluoromethyl)pyridin-2-yl]oxy}piperidin-1-yl)-1-[4-(7H-pyrrolo[2,3-d]pyrimidin-4-yl)-1H-pyrazol-1-yl]cyclobutyl}acetonitrile] | – | – |
| < 10 | 25 to 100 | N#CC[C@]1(n2cc(-c3ncnc4[nH]ccc34)cn2)C[C@H](N2CCC(Oc3cc(CN4CCC[C@H]4CO)cc(C(F)(F)F)n3)CC2)C1 [Example 161, {trans-3-(4-{[4-{[(2S)-2-(hydroxymethyl)pyrrolidin-1-yl]methyl}-6-(trifluoromethyl)pyridin-2-yl]oxy}piperidin-1-yl)-1-[4-(7H-pyrrolo[2,3-d]pyrimidin-4-yl)-1H-pyrazol-1-yl]cyclobutyl}acetonitrile] | – | – |
| < 10 | > 100 | N#CC[C@]1(n2cc(-c3ncnc4[nH]ccc34)cn2)C[C@H](N2CCC(Oc3cc(CN4CCC[C@@H]4CO)cc(C(F)(F)F)n3)CC2)C1 [Example 162, {trans-3-(4-{[4-{[(2R)-2-(hydroxymethyl)pyrrolidin-1-yl]methyl}-6-(trifluoromethyl)pyridin-2-yl]oxy}piperidin-1-yl)-1-[4-(7H-pyrrolo[2,3-d]pyrimidin-4-yl)-1H-pyrazol-1-yl]cyclobutyl}acetonitrile] | – | – |
| < 10 | 25 to 100 | CC(C)(O)c1cc(C(=O)N2CCN([C@H]3C[C@](CC#N)(n4cc(-c5ccnc6[nH]ccc56)cn4)C3)CC2)nc(C(F)(F)F)c1 [Example 163, {trans-3-(4-{[4-(1-hydroxy-1-methylethyl)-6-(trifluoromethyl)pyridin-2-yl]carbonyl}piperazin-1-yl)-1-[4-(1H-pyrrolo[2,3-b]pyridin-4-yl)-1H-pyrazol-1-yl]cyclobutyl}acetonitrile] | – | – |
